Values of other authors as cited in US20110305738A1, “Oxygenating Oral Compositions” (priority 2010, published 2011).

Key:
[1] = not given; remark: listed apart in the source

Structure (SMILES): NC(N)=O.OO [Carbamide peroxide]
- water solubility (at 20 °C): 800 grams per liter
- saturated solution concentration of carbamide peroxide (water at 20° C.): 44.4%
- pH upon dissolution ([1]; 1% solution): approximately 4.05
- pH when solubilized in water ([1]; saturated solution): approximately 3.40
